# Source: patent US12077503B2, “Substituted cyclic amides and their use as herbicides” (FMC CORPORATION, priority 2015, dated 2024)
# Where two headings read alike, the source gives them in different places.
# Tests used:
# Type in all cases: in vivo
# [1] = system: ryegrass, Italian (Italian ryegrass, Lolium multiflorum); experiment: Test A postemergence; settings: Lolium multiflorum, post-emergence, 240 h, postemergence; for pest or weed control at 125 g/ha: 125 g ai/ha; for pest or weed control at 500 g/ha: 500 g ai/ha, 0 to 100 scale, 0 is no effect, 100 is complete control
# Summary of the method: (§1)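 Treatment is preemergence as a directed soil spray after planting, or postemergence at the one- to two-leaf stage, with test chemical in a non-phytotoxic solvent mixture plus surfactant. Plants stay in the greenhouse about 10 d before visual injury scoring on a 0 to 100 scale versus untreated controls.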
# corn (Zea mays) = experiment: Test A postemergence; settings: Zea mays, post-emergence, 240 h, postemergence; for plant injury at 125 g/ha: 125 g ai/ha; for plant injury at 500 g/ha: 500 g ai/ha, 0 to 100 scale, 0 is no effect, 100 is complete control
# Summary of the method: as §1
# [2] = system: pigweed (Amaranthus retroflexus); experiment: Test A postemergence; settings: Amaranthus retroflexus, post-emergence, 240 h, postemergence; for pest or weed control at 125 g/ha: 125 g ai/ha; for pest or weed control at 500 g/ha: 500 g ai/ha, 0 to 100 scale, 0 is no effect, 100 is complete control
# Summary of the method: as §1
# [3] = system: blackgrass (Alopecurus myosuroides); experiment: Test A postemergence; settings: Alopecurus myosuroides, post-emergence, 240 h, postemergence; for pest or weed control at 125 g/ha: 125 g ai/ha; for pest or weed control at 500 g/ha: 500 g ai/ha, 0 to 100 scale, 0 is no effect, 100 is complete control
# Summary of the method: as §1
# [4] = system: ragweed (common ragweed, Ambrosia elatior); experiment: Test A postemergence; settings: Ambrosia artemisiifolia, post-emergence, 240 h, postemergence; for pest or weed control at 125 g/ha: 125 g ai/ha; for pest or weed control at 500 g/ha: 500 g ai/ha, 0 to 100 scale, 0 is no effect, 100 is complete control
# Summary of the method: as §1
# [5] = system: ducksalad (Heteranthera limosa); experiment: Test B flooded paddy test; settings: Heteranthera limosa, 250 g ai/ha, Flood; 0 to 100 scale where 0 is no effect and 100 is complete control; read-out: Ducksalad plant response rating
# Summary of the method: (§2)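 Visual ratings (0 none to 100 complete control) are relative to untreated plants, taken 13–15 d after treatment in a greenhouse. Test material went straight into floodwater standing 3 cm above the soil, kept constant, on plants at the 2-leaf stage.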
# rice (Oryra sativa) = experiment: Test B flooded paddy test; settings: Oryza sativa, 250 g ai/ha, Flood; 0 to 100 scale where 0 is no effect and 100 is complete control; read-out: Rice plant response rating
# Summary of the method: as §2
# [6] = system: barnyardgrass (Echinochloa crus-galli); experiment: Test B flooded paddy test; settings: Echinochloa crus-galli, 250 g ai/ha, Flood; 0 to 100 scale where 0 is no effect and 100 is complete control; read-out: Barnyardgrass plant response rating
# Summary of the method: as §2
# [7] = system: sedge, umbrella (small-flower umbrella sedge, Cyperus difformis); experiment: Test B flooded paddy test; settings: Cyperus difformis, 250 g ai/ha, Flood; 0 to 100 scale where 0 is no effect and 100 is complete control; read-out: Sedge, Umbrella plant response rating
# Summary of the method: as §2
# [8] = system: ryegrass, Italian (Italian ryegrass, Lolium multiflorum); experiment: Test A preemergence; settings: Lolium multiflorum, pre-emergence, 240 h, preemergence, read-out: Ryegrass, Italian plant response rating; for pest or weed control at 125 g/ha: 125 g ai/ha, approx. 10 d; for pest or weed control at 500 g/ha: 500 g ai/ha
# Summary of the method: as §1
# [9] = system: pigweed (Amaranthus retroflexus); experiment: Test A preemergence; settings: Amaranthus retroflexus, pre-emergence, 240 h, preemergence, read-out: Pigweed plant response rating; for pest or weed control at 125 g/ha: 125 g ai/ha, approx. 10 d; for pest or weed control at 500 g/ha: 500 g ai/ha
# Kochia (Kochia scoparia) = experiment: Test A preemergence; settings: Bassia scoparia, pre-emergence, 240 h, preemergence, read-out: Kochia plant response rating; for pest or weed control at 125 g/ha: 125 g ai/ha, approx. 10 d; for pest or weed control at 500 g/ha: 500 g ai/ha
# Summary of the method: as §1
# [10] = system: barnyardgrass (Echinochloa crus-galli); experiment: Test A preemergence; settings: Echinochloa crus-galli, pre-emergence, 240 h; for pest or weed control at 125 g/ha: 125 g ai/ha; for pest or weed control at 500 g/ha: 500 g ai/ha
# Summary of the method: as §1
# [11] = system: ragweed (common ragweed, Ambrosia elatior); experiment: Test A preemergence; settings: Ambrosia artemisiifolia, pre-emergence, 240 h, preemergence, read-out: Ragweed plant response rating; for pest or weed control at 125 g/ha: 125 g ai/ha, approx. 10 d; for pest or weed control at 500 g/ha: 500 g ai/ha
# Summary of the method: as §1
# [12] = system: giant foxtail (Setaria faberii); experiment: Test A preemergence; settings: Setaria faberi, pre-emergence, 240 h; for pest or weed control at 125 g/ha: 125 g ai/ha; for pest or weed control at 500 g/ha: 500 g ai/ha
# Summary of the method: as §1
# [13] = read-out: Ryegrass, Italian plant response rating
# [14] = read-out: Corn plant response rating
# [15] = read-out: Pigweed plant response rating
# [16] = read-out: Blackgrass plant response rating
# [17] = read-out: Ragweed plant response rating
# [18] = 0 to 100 scale where 0 is no effect and 100 is complete control
# [19] = visual injury rating about 10 d after treatment, 0 to 100 scale (0 no effect, 100 complete control)
SMILES,"pest or weed control at 500 g/ha [1, 13]",plant injury at 500 g/ha (corn (Zea mays); [14]),"pest or weed control at 500 g/ha [2, 15]","pest or weed control at 500 g/ha [3, 16]","pest or weed control at 500 g/ha [4, 17]",pest or weed control at 250 g/ha [5],pest or weed control at 250 g/ha (rice (Oryra sativa)),pest or weed control at 250 g/ha [6],pest or weed control at 250 g/ha [7],"pest or weed control at 125 g/ha [8, 18]","pest or weed control at 125 g/ha [9, 18]",pest or weed control at 125 g/ha (Kochia (Kochia scoparia); [18]),"pest or weed control at 125 g/ha [11, 18]",also measured
CSc1ccccc1NC(=O)C1C(=O)NCC1C=C(C)C (stereo not shown) [Compound 1055],0%,0%,0%,0%,0%,30%,0%,0%,0%,0%,0%,0%,0%,"pest or weed control at 125 g/ha ([1]; visual injury on 0 to 100 scale (0 no effect, 100 complete control), approx. 10 d, read-out: Ryegrass, Italian plant response rating): 0%; plant injury at 125 g/ha (corn (Zea mays); visual injury on 0 to 100 scale (0 no effect, 100 complete control), approx. 10 d, read-out: Corn plant response rating): 0%; pest or weed control at 125 g/ha ([2]; visual injury on 0 to 100 scale (0 no effect, 100 complete control), approx. 10 d, read-out: Pigweed plant response rating): 0%; pest or weed control at 125 g/ha ([3]; visual injury on 0 to 100 scale (0 no effect, 100 complete control), approx. 10 d, read-out: Blackgrass plant response rating): 0%; pest or weed control at 125 g/ha ([4]; visual injury on 0 to 100 scale (0 no effect, 100 complete control), approx. 10 d, read-out: Ragweed plant response rating): 0%; pest or weed control at 500 g/ha [8, 19]: 0%; pest or weed control at 500 g/ha [9, 19]: 0%; pest or weed control at 500 g/ha (Kochia (Kochia scoparia); [19]): 0%; pest or weed control at 125 g/ha ([10]; Preemergence, visual injury rating after approximately 10 d, read-out: Barnyardgrass plant response rating (0 to 100 scale, 0 is no effect, 100 is complete control)): 0%; pest or weed control at 500 g/ha ([10]; preemergence, visual injury rating about 10 d after treatment, 0 to 100 scale (0 no effect, 100 complete control), read-out: Barnyardgrass plant response rating): 0%; pest or weed control at 500 g/ha [11, 19]: 0%; pest or weed control at 125 g/ha ([12]; Preemergence, visual injury rating after approximately 10 d, read-out: Foxtail, Giant plant response rating (0 to 100 scale, 0 is no effect, 100 is complete control)): 0%; pest or weed control at 500 g/ha ([12]; preemergence, visual injury rating about 10 d after treatment, 0 to 100 scale (0 no effect, 100 complete control), read-out: Foxtail, Giant plant response rating): 0%"
O=C1NC[C@H](c2nccs2)[C@H]1C(=O)Nc1ccccc1F [Compound 1181],0%,0%,0%,0%,0%,35%,0%,0%,0%,0%,0%,0%,0%,"pest or weed control at 125 g/ha ([1]; visual injury vs untreated controls after approx. 10 d, 0 = no effect, 100 = complete control, read-out: Ryegrass, Italian plant response rating (0 to 100 scale)): 0%; plant injury at 125 g/ha (corn (Zea mays); visual injury vs untreated controls after approx. 10 d, 0 = no effect, 100 = complete control, read-out: Corn plant response rating (0 to 100 scale)): 0%; pest or weed control at 125 g/ha ([2]; visual injury vs untreated controls after approx. 10 d, 0 = no effect, 100 = complete control, read-out: Pigweed plant response rating (0 to 100 scale)): 0%; pest or weed control at 125 g/ha ([3]; visual injury vs untreated controls after approx. 10 d, 0 = no effect, 100 = complete control, read-out: Blackgrass plant response rating (0 to 100 scale)): 0%; pest or weed control at 125 g/ha ([4]; visual injury vs untreated controls after approx. 10 d, 0 = no effect, 100 = complete control, read-out: Ragweed plant response rating (0 to 100 scale)): 0%; pest or weed control at 500 g/ha [8, 18]: 0%; pest or weed control at 500 g/ha [9, 18]: 0%; pest or weed control at 500 g/ha (Kochia (Kochia scoparia); [18]): 0%; pest or weed control at 125 g/ha ([10]; preemergence, 0 to 100 scale where 0 is no effect and 100 is complete control, approx. 10 d, read-out: Barnyardgrass plant response rating): 0%; pest or weed control at 500 g/ha ([10]; preemergence, 0 to 100 scale where 0 is no effect and 100 is complete control, read-out: Barnyardgrass plant response rating): 0%; pest or weed control at 500 g/ha [11, 18]: 0%; pest or weed control at 125 g/ha ([12]; preemergence, 0 to 100 scale where 0 is no effect and 100 is complete control, approx. 10 d, read-out: Foxtail, Giant plant response rating): 0%; pest or weed control at 500 g/ha ([12]; preemergence, 0 to 100 scale where 0 is no effect and 100 is complete control, read-out: Foxtail, Giant plant response rating): 0%"
